Source: patent US9371292B2, “Quinazoline derivative, preparation method therefor, intermediate, composition and application thereof” (SHANGHAI PHARMACEUTICALS HOLDINGS CO., LTD., priority 2011, dated 2016)

Legend:
EGFR tyrosine kinase = biological target: T1, EGFR tyrosine kinase (Homo sapiens, UniProt P00533); experiment: HTRF assay, inhibition of EGFR tyrosine kinase; format: biochemical; conditions: HTRF method
T1 construct: purchased Sigma Aldrich
Experimental: The activity of inhibitory against the kinase of the test compound is expressed by IC50. The assays are performed by Homogeneous time-resolved fluorescence (HTRF) method which is as follows: a series of synthesized analogues with gradient concentration are incubated for 5 minutes in enzymatic solution with specific concentration (for EGFR) at room temperature. Then proper amount of substrate and ATP are added into the reaction mixture to start the enzyme reaction. The assays of the specific concentration of compound is measured by Flexstation III of Molecular device company after the stop buffer and detecting liquid are added to the enzyme reaction system and hatch at room temperature for 1 hour. And the activity of inhibitory against the kinase of the test compound with different concentration will be calculated, then according to the 4-parameter equation, fit the inhibitory activity of the test compound with different concentration to get the IC50. EGFR is purchased from Sigma Aldrich. The HTRF KinEASE-TK is purchased from Cisbio Bioassays. ATP is purchased from Sigma Aldrich.

A431 cell = experiment: Proliferation inhibition, A431 cells (CellTiter-Glo); format: cell-based; conditions: Homo sapiens, A-431, 48 hours
Experimental: (§1) This example is to determine the proliferation inhibitory activity against wide type of high expression cell lines A431 of EGFR and mutant cell lines NCI-H1975^L858RT790M, the proliferation inhibitory activity in cell-based level of compound is expressed by IC50. The test method is as follows: both cell lines are purchased from American type culture collection (ATCC). The cells are seeded in a white and opaque 384-well culture plate with a proper concentration (A431: 20000 cells/ml medium; H1975: 15000 cells/ml medium), cultured at 37° C. with 5% CO2 for 24 hrs, a series of medicine with gradient concentration is added, generally 10 concentrations, cultured for another 48 hours under the previous conditions. The assays of the proliferation inhibitory activity against the A431 and H1975 cell of the test compounds are performed by the CellTiter-Glo Luminescent Cell Viability Assay and calculate the proliferation inhibitory activity of compound with different concentrations. CellTiter-Glo Luminescent Cell Viability Assay is purchased from Promega. Fit the data of proliferation inhibitory activity against A431 and H1975 of compounds with different concentrations with 4-parameter equation.

[1] = system: NCI-H1975 L858R T790M cell; experiment: Proliferation inhibition, H1975 cells (CellTiter-Glo); format: cell-based; conditions: Homo sapiens, 48 hours
Experimental: as §1

T1 sequence (P00533 25-1210): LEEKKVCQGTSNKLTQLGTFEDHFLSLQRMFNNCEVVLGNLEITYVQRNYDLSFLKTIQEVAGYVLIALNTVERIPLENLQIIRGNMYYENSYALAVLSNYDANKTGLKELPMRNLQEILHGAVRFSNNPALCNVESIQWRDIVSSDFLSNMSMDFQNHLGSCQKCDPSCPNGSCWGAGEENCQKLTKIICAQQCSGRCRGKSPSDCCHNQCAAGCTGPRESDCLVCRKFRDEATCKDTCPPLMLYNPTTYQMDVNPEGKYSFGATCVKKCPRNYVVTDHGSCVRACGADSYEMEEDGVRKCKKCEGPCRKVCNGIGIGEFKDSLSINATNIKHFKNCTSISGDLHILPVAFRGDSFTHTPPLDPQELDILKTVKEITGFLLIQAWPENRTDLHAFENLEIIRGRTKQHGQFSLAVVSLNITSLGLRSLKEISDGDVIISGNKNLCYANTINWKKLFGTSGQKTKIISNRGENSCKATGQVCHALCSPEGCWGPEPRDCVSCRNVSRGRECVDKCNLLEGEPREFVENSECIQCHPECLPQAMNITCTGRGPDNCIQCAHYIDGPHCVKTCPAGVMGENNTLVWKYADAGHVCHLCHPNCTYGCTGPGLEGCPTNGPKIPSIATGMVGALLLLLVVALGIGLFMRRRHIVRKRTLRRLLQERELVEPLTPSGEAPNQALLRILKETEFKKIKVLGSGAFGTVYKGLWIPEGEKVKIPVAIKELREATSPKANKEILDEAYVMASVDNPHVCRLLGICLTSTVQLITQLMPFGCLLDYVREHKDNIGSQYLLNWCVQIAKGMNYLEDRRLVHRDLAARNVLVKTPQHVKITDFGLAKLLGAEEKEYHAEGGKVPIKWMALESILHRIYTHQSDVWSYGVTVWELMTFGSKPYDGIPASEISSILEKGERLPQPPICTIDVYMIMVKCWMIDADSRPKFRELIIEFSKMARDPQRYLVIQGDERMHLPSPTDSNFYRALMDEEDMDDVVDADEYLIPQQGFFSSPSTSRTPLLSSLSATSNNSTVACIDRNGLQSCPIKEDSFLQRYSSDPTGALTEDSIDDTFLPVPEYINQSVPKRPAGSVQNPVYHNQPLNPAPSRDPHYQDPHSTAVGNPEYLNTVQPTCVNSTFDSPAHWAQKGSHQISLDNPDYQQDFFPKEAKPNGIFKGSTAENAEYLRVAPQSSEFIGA

Row | IC50 (EGFR tyrosine kinase) | IC50 (A431 cell) | IC50 [1] | SMILES
1 | 0.35 nM | 180 nM | 1100 nM | C=C(F)C(=O)Nc1cc2c(Nc3ccc(Br)c(Cl)c3F)ncnc2cc1OCCCN1CCOCC1 [Compound 38, N-[4-(4-bromo-3-chloro-2-fluoro-phenylamino)-7-(3-morpholin-4-yl-propoxy)-quinazolin-6-yl]-2-fluoro-acrylamide]
2 | 1 nM | 1300 nM | 3400 nM | C=C(F)C(=O)Nc1cc2c(Nc3ccc(F)c(Cl)c3)ncnc2cc1OCCCN1CCCCC1 [Compound 40, N-[4-(3-chloro-4-fluoro-phenylamino)-7-(3-piperidin-l-yl-propoxy)-quinazolin-6-yl]-2-fluoro-acrylamide]
3 | 0.55 nM | 530 nM | 2400 nM | C=C(F)C(=O)Nc1cc2c(Nc3ccc(F)c(Cl)c3)ncnc2cc1OCCCN(C)C [Compound 42, N-[4-(3-chloro-4-fluoro-phenylamino)-7-(3-dimethylamino-propoxy)-quinazolin-6-yl]-2-fluoro-acrylamide]
4 | 1.3 nM | 1680 nM | 3400 nM | C=C(F)C(=O)Nc1cc2c(Nc3ccc(F)c(Cl)c3)ncnc2cc1OCCCN1CCCC1 [Compound 43, N-[4-(3-chloro-4-fluoro-phenylamino)-7-(3-pyrrolidin-l-yl-propoxy)-quinazolin-6-yl]-2-fluoro-acrylamide]
5 | 0.29 nM | 530 nM | 3700 nM | C=C(F)C(=O)Nc1cc2c(Nc3ccc(F)c(Cl)c3)ncnc2cc1OCCCN1CCN(C)CC1 [Compound 44, N-{4-(3-chloro-4-fluoro-phenylamino)-7-[3-(4-methyl-piperazin-1-yl)-propoxy]-quinazolin-6-yl}-2-fluoro-acrylamide]
6 | 0.65 nM | 13000 nM | 1800 nM | C=C(F)C(=O)Nc1cc2c(Nc3ccc(F)c(Cl)c3F)ncnc2cc1OCC1CC1 [Compound 48, N-[4-(3-chloro-2,4-difluoro-phenylamino)-7-cyclopropylmethoxy-quinazolin-6-yl]-2-fluoro-acrylamide]
7 | 5.5 nM | 15000 nM | 2400 nM | C=C(F)C(=O)Nc1cc2c(Nc3ccc(F)c(Cl)c3F)ncnc2cc1O[C@@H]1CCN(C)C1 [Compound 50, (R)-N-[4-(3-chloro-2,4-difluoro-phenylamino)-7-(1-methyl-pyrrolidin-3-yloxy)-quinazolin-6-yl]-2-fluoro-acrylamide]
8 | 0.36 nM | 36000 nM | 1000 nM | C=C(F)C(=O)Nc1cc2c(Nc3cccc(Br)c3)ncnc2cc1OCC [Compound 53, N-[4-(3-bromo-phenylamino)-7-ethoxy-quinazolin-6-yl]-2-fluoro-acrylamide]
9 | 1.1 nM | 3800 nM | 13000 nM | C=C(F)C(=O)Nc1cc2c(Nc3cccc(C(F)(F)F)c3)ncnc2cc1OC [Compound 54, N-[7-methoxy-4-(3-trifluoromethyl-phenylamino)-quinazolin-6-yl]-2-fluoro-acrylamide]
10 | 0.13 nM | 7500 nM | 1300 nM | C=C(Cl)C(=O)Nc1cc2c(Nc3ccc(F)c(Cl)c3)ncnc2cc1OC [Compound 57, N-[4-(3-chloro-4-fluoro-phenylamino)-7-methoxy-quinazolin-6-yl]-2-chloro-acrylamide]
11 | 4.5 nM | 800 nM | 1000 nM | C=C(F)C(=O)Nc1cc2c(Nc3ccc(OCC4CC4)c(Cl)c3)ncnc2cc1OCCCN1CCOCC1 [Compound 61]

The remaining lines, values behind:

Row | SMILES | IC50 (EGFR tyrosine kinase) | IC50 (A431 cell) | IC50 [1]
12 | C=C(F)C(=O)Nc1cc2c(Nc3ccc(Cl)c(OC)c3)ncnc2cc1OCCCN1CCOCC1 [Compound 37, N-[4-(4-chloro-3-methoxy-phenylamino)-7-(3-morpholin-4-yl-propoxy)-quinazolin-6-yl]-2-fluoro-acrylamide] | 4.7 nM | > 100000 nM | 1900 nM
13 | C=C(F)C(=O)Nc1cc2c(Nc3ccc(F)c(Cl)c3F)ncnc2cc1OCC1CCC1 [Compound 47, N-[4-(3-chloro-2,4-difluoro-phenylamino)-7-cyclobutylmethoxy-quinazolin-6-yl]-2-fluoro-acrylamide] | 1.88 nM | 14000 nM | 1500 nM
14 | C=C(F)C(=O)Nc1cc2c(Nc3ccc(F)c(Cl)c3F)ncnc2cc1O[C@H]1CCN(C)C1 [Compound 51, (S)-N-[4-(3-chloro-2,4-difluoro-phenylamino)-7-(1-methyl-pyrrolidin-3-yloxy)-quinazolin-6-yl]-2-fluoro-acrylamide] | 4.9 nM | 20000 nM | 7300 nM
15 | C=C(F)C(=O)Nc1cc2c(Nc3cccc(Br)c3)ncnc2cc1OC [Compound 52, N-[4-(3-bromo-phenylamino)-7-methoxy-quinazolin-6-yl]-2-fluoro-acrylamide] | 0.22 nM | 1600 nM | 470 nM
16 | C=C(F)C(=O)Nc1cc2c(Nc3cccc(C(F)(F)F)c3)ncnc2cc1OCC [Compound 55, N-[7-ethoxy-4-(3-trifluoromethyl-phenylamino)-quinazolin-6-yl]-2-fluoro-acrylamide] | 0.97 nM | 22000 nM | 13000 nM
17 | C=C(F)C(=O)Nc1cc2c(Nc3ccc(F)c(Cl)c3)ncnc2cc1OC [Compound 56, N-[4-(3-chloro-4-fluoro-phenylamino)-7-methoxy-quinazolin-6-yl]-2-fluoro-acrylamide] | 0.22 nM | 2800 nM | 510 nM
18 | C=C(Cl)C(=O)Nc1cc2c(Nc3cccc(C(F)(F)F)c3)ncnc2cc1OCC [Compound 58, N-[7-ethoxy-4-(3-trifluoromethyl-phenylamino)-quinazolin-6-yl]-2-chloro-acrylamide] | 1 nM | 27000 nM | 8300 nM
19 | C=C(Cl)C(=O)Nc1cc2c(Nc3cccc(Br)c3)ncnc2cc1OCC [Compound 59, N-[4-(3-bromo-phenylamino)-7-ethoxy-quinazolin-6-yl]-2-chloro-acrylamide] | 0.63 nM | 10000 nM | 11000 nM
